Experimental data reported in ChEMBL document CHEMBL4673323, “Novel molecular hybrids of indoline spiropyrans and α-lipoic acid as potential photopharmacological agents: Synthesis, structure, photochromic and biological properties” (Bioorg Med Chem Lett, 2021).
Active and inactive are the calls of the source. The rule behind the calls is not given here.

Assays:
HeLa [1] = assay: Cytotoxicity against human HeLa cells assessed as decrease in cell viability measured after 24 hrs; type: cell-based
[2] = Cytotoxicity against human HeLa cells assessed as decrease in cell viability at 2 mM measured after 24 hrs relative to 8% DMSO control; type: cell-based; conditions: read-out: INH
[3] = Cytotoxicity against human HeLa cells assessed as effect on cell viability at 2 mM measured after 24 hrs (Rvb (8% DMSO) = 79.08 +/- 10.78 %); type: cell-based; conditions: read-out: Activity
[4] = Cytotoxicity against human HeLa cells assessed as effect on cell viability at 500 uM measured after 24 hrs (Rvb (2% DMSO) = 93.5 +/- 3.19 %); type: cell-based; conditions: read-out: Activity
[5] = Cytotoxicity against human HeLa cells assessed as decrease in cell viability at 500 uM measured after 24 hrs relative to 2% DMSO control; type: cell-based; conditions: read-out: INH
[6] = Photochromic activity assessed as photoinduced isomerization by measuring increase in intensity of the absorption at 568 to 574 nm by UV spectra
[7] = Effect on biochemical parameters of gross oxidative status in human HeLa cells at 500 uM measured after 24 hrs relative to control; type: ADME, cell-based
HeLa [8] = assay: Antioxidant activity in human HeLa cells assessed as increase in cellular thiol level at 500 uM measured after 24 hrs by Thiol-tracker violet molecular probe based assay relative to control; type: functional
HeLa [9] = assay: Antioxidant activity in human HeLa cells assessed as increase in cellular thiol level at 500 uM measured after 24 hrs by Thiol-tracker violet molecular probe based assay; type: functional, cell-based
HeLa [10] = assay: Antioxidant activity in human HeLa cells assessed as decrease in cytosolic ROS at 500 uM measured after 24 hrs by CellROX orange reagent based flow cytometry; type: functional, cell-based
HeLa [11] = assay: Antioxidant activity in human HeLa cells assessed as decrease in nuclear ROS at 500 uM measured after 24 hrs by CellROX reagent based flow cytometry; type: functional, cell-based
HeLa [12] = assay: Antioxidant activity in human HeLa cells assessed as decrease in mitochondrial ROS at 500 uM measured after 24 hrs by CellROX reagent based flow cytometry; type: functional, cell-based
HeLa [13] = assay: Antioxidant activity in human HeLa cells assessed as decrease in cytosolic ROS at 500 uM measured after 24 hrs by CellROX orange reagent based flow cytometry relative to control; type: functional
HeLa [14] = assay: Antioxidant activity in human HeLa cells assessed as increase in cellular thiol level at 2 mM measured after 24 hrs by Thiol-tracker violet molecular probe based assay relative to control; type: functional
HeLa [15] = assay: Antioxidant activity in human HeLa cells assessed as decrease in nuclear ROS at 500 uM measured after 24 hrs by CellROX reagent based flow cytometry relative to control; type: functional
HeLa [16] = assay: Antioxidant activity in human HeLa cells assessed as decrease in mitochondrial ROS at 500 uM measured after 24 hrs by CellROX reagent based flow cytometry relative to control; type: functional

Compound	IC50 (HeLa [1])	cytotoxicity at 24 h, 2000 µM [2]	viability at 24 h, 2000 µM [3]	viability at 24 h, 500 µM [4]	cytotoxicity at 24 h, 500 µM [5]	Activity [6]	Activity [7]	Activity (HeLa [8])	Activity (HeLa [9])	inhibition (HeLa [10])	inhibition (HeLa [11])	inhibition (HeLa [12])	inhibition at 500 µM (HeLa [13])	Activity (HeLa [14])	inhibition at 500 µM (HeLa [15])	inhibition at 500 µM (HeLa [16])
COc1ccc2c(c1)C(C)(C)C1(C=Cc3c(ccc4ccc(O)cc34)O1)N2C (stereo unspecified)	46.2 µM	93.7%	5%	4.19%	98.4%	–	–	–	–	–	–	–	–	–	–	–
CN1c2ccccc2C(C)(C)C12C=Cc1c(ccc3ccc(OC(=O)CCCCC4CCSS4)cc13)O2 (stereo unspecified)	–	–	73.4%	95%	–	inactive	Non-Toxic	35%	Active	inactive	–	–	–	–	–	–
COc1ccc2c(c1)C(C)(C)C1(C=Cc3c(ccc4ccc(OC(=O)CCCCC5CCSS5)cc34)O1)N2C (stereo unspecified)	–	–	77.9%	89.3%	8.3%	Active	–	30%	Active	–	inactive	inactive	78%	–	–	–
CN1c2ccccc2C(C)(C)C12C=Cc1c(ccc3ccc(O)cc13)O2 (stereo unspecified)	–	–	66.5%	84.5%	11.9%	inactive	–	–	–	–	–	–	–	–	–	–
O=C(O)CCCCC1CCSS1 (stereo not drawn) [LIPOIC ACID, ALPHA]	–	32.7%	51.8%	94.7%	–	–	–	–	–	–	–	–	–	90%	31%	31%
